Reference: ChEMBL document CHEMBL2396537, “Orally active opioid compounds from a non-poppy source” (J Med Chem, 2013)
The source made the active and inactive calls. The rule behind the calls is not given here.

Key:
[1] = Binding affinity to delta opioid receptor (unknown origin)
Mu-type opioid receptor [2] = target: Mu-type opioid receptor (Homo sapiens, UniProt P35372); test: Binding affinity to mu opioid receptor (unknown origin)
[3] = target: Kappa-type opioid receptor (Homo sapiens, UniProt P41145); test: Binding affinity to kappa opioid receptor (unknown origin)
Kappa-type opioid receptor (Homo sapiens, UniProt P41145), sequence (P41145 whole entry): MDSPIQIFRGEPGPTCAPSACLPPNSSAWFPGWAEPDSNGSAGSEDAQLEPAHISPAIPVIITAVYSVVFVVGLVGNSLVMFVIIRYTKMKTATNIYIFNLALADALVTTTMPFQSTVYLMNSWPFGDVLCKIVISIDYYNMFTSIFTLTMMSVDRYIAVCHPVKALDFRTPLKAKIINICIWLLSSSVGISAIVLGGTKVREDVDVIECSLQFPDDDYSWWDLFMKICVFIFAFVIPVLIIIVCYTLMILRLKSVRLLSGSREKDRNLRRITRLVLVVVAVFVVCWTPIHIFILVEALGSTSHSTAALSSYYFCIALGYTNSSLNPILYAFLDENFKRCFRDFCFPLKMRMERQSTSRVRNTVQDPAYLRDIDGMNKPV

Rattus norvegicus = test: Inhibition of gastrointestinal transit of charcoal meal in rat at 55.2 mg/kg, po; type: organism-based; parameters: dose 55.2 mg/kg, route oral; details: in vivo
Mus musculus [4] = test: Antinociceptive activity in ddY mouse assessed as tolerance level at 10 mg/kg, sc bid measured on day 5 by tail-flick test; type: functional
Cavia porcellus [5] = organism: Cavia porcellus; test: Agonist activity at opioid receptor in guinea pig ileum assessed as inhibition of electrically-induced twitch at 100 pM to 30 uM relative to morphine; type: tissue-based
Cavia porcellus [6] = organism: Cavia porcellus; test: Selectivity ratio of Ki for mu opioid receptor in Dunkin-Hartley guinea pig brain over Ki for delta opioid receptor in Dunkin-Hartley guinea pig brain
[7] = Displacement of [3H]DPDPE from guinea pig brain delta opoid receptor after 4 hrs by liquid scintillation counting analysis; parameters: species or system Cavia porcellus
[8] = Displacement of [3H]DPDPE from delta opoid receptor in Dunkin-Hartley guinea pig brain after 2 hrs by liquid scintillation spectrometry; parameters: species or system Cavia porcellus
Mu-type opioid receptor [9] = target: T1, Mu-type opioid receptor (Cavia porcellus, UniProt P97266); test: Displacement of [3H]DAMGO from mu opoid receptor in Dunkin-Hartley guinea pig brain after 1.5 hrs by liquid scintillation spectrometry
T1 sequence (P97266 whole entry): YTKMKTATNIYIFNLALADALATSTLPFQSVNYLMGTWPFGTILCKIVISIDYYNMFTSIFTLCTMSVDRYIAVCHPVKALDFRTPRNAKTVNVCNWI

Mu-type opioid receptor [10] = target: T1, Mu-type opioid receptor; test: Displacement of [3H]DAMGO from guinea pig brain mu opoid receptor after 3 hrs by liquid scintillation counting analysis
[11] = target: T2, Kappa-type opioid receptor (Cavia porcellus, UniProt P41144); test: Displacement of [3H]U-69,593 from guinea pig brain kappa opoid receptor after 1 hr by liquid scintillation counting analysis
T2 sequence (P41144 whole entry): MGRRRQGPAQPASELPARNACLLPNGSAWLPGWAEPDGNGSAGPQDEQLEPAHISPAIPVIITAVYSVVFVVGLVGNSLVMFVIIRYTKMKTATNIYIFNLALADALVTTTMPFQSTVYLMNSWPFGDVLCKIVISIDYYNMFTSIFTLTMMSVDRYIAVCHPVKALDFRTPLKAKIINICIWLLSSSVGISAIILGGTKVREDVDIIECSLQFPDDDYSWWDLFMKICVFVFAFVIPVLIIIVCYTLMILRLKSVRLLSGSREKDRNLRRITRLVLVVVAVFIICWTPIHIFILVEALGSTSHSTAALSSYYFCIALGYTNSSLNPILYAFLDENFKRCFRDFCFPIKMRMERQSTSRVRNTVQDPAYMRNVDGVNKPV

[12] = target: T2, Kappa-type opioid receptor; test: Displacement of [3H]U-69593 from kappa opoid receptor in Dunkin-Hartley guinea pig brain after 1 hr by liquid scintillation spectrometry
Mus musculus [13] = test: Antinociceptive activity in mouse at 92 mg/kg, po by hot plate test; type: functional

Mu-type opioid receptor (Homo sapiens, UniProt P35372), sequence (P35372 whole entry): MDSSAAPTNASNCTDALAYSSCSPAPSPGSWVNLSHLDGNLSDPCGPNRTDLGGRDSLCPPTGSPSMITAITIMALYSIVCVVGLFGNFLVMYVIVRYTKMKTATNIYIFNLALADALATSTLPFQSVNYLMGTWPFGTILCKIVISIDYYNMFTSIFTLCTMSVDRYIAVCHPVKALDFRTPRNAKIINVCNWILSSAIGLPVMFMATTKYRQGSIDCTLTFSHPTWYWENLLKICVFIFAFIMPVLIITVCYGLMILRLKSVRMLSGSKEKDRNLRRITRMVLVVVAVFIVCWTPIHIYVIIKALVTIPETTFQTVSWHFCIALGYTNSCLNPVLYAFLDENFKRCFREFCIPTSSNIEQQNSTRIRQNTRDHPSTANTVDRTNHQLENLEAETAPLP

CC[C@@H]1CN2CC[C@]3(Nc4cccc(OC)c4C3=O)[C@@H]2C[C@@H]1/C(=C\OC)C(=O)OC
Ki [1]: 3 nM | Ki (Mu-type opioid receptor [2]): 0.01 nM | Ki [3]: 79 nM

CN1CC[C@]23c4c5ccc(O)c4O[C@H]2[C@@H](O)C=C[C@H]3[C@H]1C5 [MORPHINE]
inhibition (INH) (Rattus norvegicus): 70% | Activity (Mus musculus [4]; route subcutaneous): 100%

CC[C@@H]1CN2CC[C@@]3(OC)C(=Nc4cccc(OC)c43)[C@@H]2C[C@@H]1/C(=C\OC)C(=O)OC
Efficacy (Cavia porcellus [5]): 70% | inhibition (Cavia porcellus [5]): 19%

CC[C@@H]1CN2CC[C@@]34OCCO[C@@]3(Nc3ccc(F)c(OC)c34)[C@@H]2C[C@@H]1/C(=C\OC)C(=O)OC
Ki (Mu-type opioid receptor [2]): 7 nM | Ki [3]: 7 nM

CC[C@@H]1CN2CC[C@@]3(O)C(=Nc4cccc(OC)c43)[C@@H]2C[C@@H]1/C(=C\OC)C(=O)OC
Ratio Ki (Cavia porcellus [6]): > 10 | Efficacy (Cavia porcellus [5]): 99% | Ki [7]: 145 nM | Ki [8]: 155 nM | Ki (Mu-type opioid receptor [9]): 13 nM | Ki (Mu-type opioid receptor [10]): 9.8 nM | Activity (Mus musculus [4]): Active | Ki [11]: 195 nM

CC[C@@H]1CN2CC[C@@]3(OC(C)=O)C(=Nc4cccc(OC)c43)[C@@H]2C[C@@H]1/C(=C\OC)C(=O)OC
Efficacy (Cavia porcellus [5]): 15% | inhibition (Cavia porcellus [5]): 21%

CC[C@@H]1CN2CCc3c([nH]c4cccc(OC)c34)[C@@H]2C[C@@H]1/C(=C\OC)C(=O)OC
Ratio Ki (Cavia porcellus [6]): 10 | Ki [12]: > 1000 nM | Efficacy (Cavia porcellus [5]): 95% | inhibition (Cavia porcellus [5]): 26% | inhibition (INH) (Rattus norvegicus): 18% | Ki [8]: 60 nM | Activity (Mus musculus [13]): 100%

CC[C@@H]1CN2CCc3c([nH]c4cccc(OC(C)=O)c34)[C@@H]2C[C@@H]1/C(=C\OC)C(=O)OC
Efficacy (Cavia porcellus [5]): 38% | inhibition (Cavia porcellus [5]): 2%

COc1ccc2c3c1O[C@H]1[C@@H](O)C=C[C@H]4[C@@H](C2)N(C)CC[C@@]341 [CODEINE]
inhibition (INH) (Rattus norvegicus): 70%

CCO[C@]12CCN3C[C@@H](CC)[C@@H](/C(=C\OC)C(=O)OC)C[C@H]3C1=Nc1cccc(OC)c12
Efficacy (Cavia porcellus [5]): 26% | inhibition (Cavia porcellus [5]): 1%

CC[C@@H]1CN2CCc3c([nH]c4cccc(O)c34)[C@@H]2C[C@@H]1/C(=C\OC)C(=O)OC
Efficacy (Cavia porcellus [5]): 57% | inhibition (Cavia porcellus [5]): 41%
